Reference: ChEMBL document CHEMBL3044594, “Comparison of the inhibitory action of synthetic capsaicin analogues with various NADH-ubiquinone oxidoreductases” (Biochim Biophys Acta, 1996)
Calls of active or inactive are those of the source. The calls are words filed in the database; no cut-off is given here.

How the values were obtained:
Solanum tuberosum [1] = assay: Inhibition of Solanum tuberosum (potato) inner mitochondrial membrane NDH2 assessed as […] reductase activity at 100 uM relative to control
Escherichia coli = assay: Inhibition of Escherichia coli GR19N NDH2 assessed as […] reductase activity at 100 uM relative to control
Solanum tuberosum [2] = assay: Inhibition of Solanum tuberosum (potato) submitochondrial particle NDH1 assessed as deaminoNADH-DB reductase activity

| Compound | inhibition (Solanum tuberosum [1]) | inhibition (Escherichia coli) | pI50 (Solanum tuberosum [2]) |
| --- | --- | --- | --- |
| COc1ccc(CNC(=O)c2ccc(Oc3ccc(C)cc3)cc2)cc1OC | inactive | inactive | inactive |
| CCCCCCCCCCCC(=O)NCc1cc(C)ccc1C | inactive | 60% |  |
| CCCCCCCCCCCCC(=O)Nc1ccc(OC)c(OC)c1 | inactive | inactive |  |
| CCCCCCCCCCCC(=O)NCc1ccc(Cl)c(Cl)c1 | inactive | 70% |  |
| CCCCCCCOc1ccc(C(=O)NCc2ccc(OC)c(OC)c2)c(O)c1 | 30% | 90% |  |
| CCCCCCCCc1ccc(C(=O)N(C)Cc2ccc(OC)c(OC)c2)cc1 |  | 60% |  |
| COc1ccc(CNC(=O)c2ccc(Oc3ccc(C(C)(C)C)cc3)cc2)cc1OC | 100% | 60% |  |
| CCCCCCCCCCCNC(=O)Cc1ccc(OC)c(OC)c1 | inactive | inactive |  |
| CCCCCCCCCCCC(=O)NCc1cccc(OC)c1OC | inactive | inactive |  |
| COc1ccc(CNC(=O)c2ccccc2C)cc1OC | inactive | inactive | inactive |
| COc1ccc(CNCc2ccc(Oc3ccc(C(C)(C)C)cc3)cc2)cc1OC | inactive | 60% |  |
| CCCCCCCOc1cccc(C(=O)NCc2ccc(OC)c(OC)c2)c1 | inactive | 60% |  |
| CCCCCCCCCCCC(=O)NCc1ccc(OC)cc1OC | inactive | inactive |  |
| CCCCCCCCCCCC(=O)NCc1ccc(O)c(OC)c1 | inactive | 70% | inactive |
| COc1ccc(CNC(=O)c2ccc(C)cc2)cc1OC | inactive | inactive |  |
| CCCCCCCCc1ccc(C(=O)NCc2ccc(OC)c(OC)c2)cc1 | inactive | 50% |  |
| COc1ccc(CNC(=O)c2cccc3ccccc23)cc1OC | inactive | inactive |  |
| Cc1nn(C)c(Oc2ccccc2)c1/C=N/OCc1ccc(C(=O)OC(C)(C)C)cc1 |  | 60% |  |
| COc1ccc(CNC(=O)c2ccc(Oc3ccccc3C)cc2)cc1OC |  | 90% | inactive |
| CCCCCCCCCCCC(=O)NCc1ccc(OC)cc1 | 100% | 80% |  |
| COc1cc(CNC(=O)CCCC/C=C/C(C)C)ccc1O | inactive | 20% |  |
| CCCCCCCCCCCCNC(=O)c1ccc(OC)c(OC)c1 | inactive | inactive |  |
| CCCCCCCCc1ccc(C(=O)NCc2cc(OC)ccc2OC)cc1 |  | 60% |  |
| CCCCCCCCCCCC(=O)N(C)Cc1ccc(OC)c(OC)c1 |  | inactive |  |
| CCCCCCCCCCCC(=O)N(C)Cc1cc(OC)ccc1OC |  | 30% |  |
| CCCCCCCCCCCCNCc1ccc(OC)c(OC)c1 |  | inactive |  |
| CCCCc1ccc(C(=O)NCc2ccc(OC)c(OC)c2)cc1 | inactive | inactive | inactive |

| Compound | inhibition (Solanum tuberosum [1]) | inhibition (Escherichia coli) | pI50 (Solanum tuberosum [2]) |
| --- | --- | --- | --- |
| CCCCCCCCCCCC(=O)N1CCc2cc(OC)c(OC)cc2C1 |  | inactive |  |
| C/C=C(\C)[C@H](O)[C@H](C)/C=C(C)/C=C/C/C(C)=C/Cc1nc(OC)c(OC)c(O)c1C |  | 50% |  |
| CCCCCCCCCCOc1ccc(C(=O)NCc2ccc(OC)c(OC)c2)cc1 | inactive | 70% | inactive |
| C=C(C)[C@H]1Cc2c(ccc3c2O[C@@H]2COc4cc(OC)c(OC)cc4[C@@H]2C3=O)O1 | inactive | 70% |  |
| CCC(C)(C)c1ccc(Oc2ccc(C(=O)NCc3ccc(OC)c(OC)c3)cc2)cc1 |  | 60% |  |
| CCCCCCCCCCNC(=O)CCc1ccc(OC)c(OC)c1 | inactive | 40% |  |
| COc1ccc(CNC(=O)c2ccc(OCc3ccccc3)cc2)cc1OC | inactive | inactive | inactive |
| COc1ccc(CNC(=O)c2ccc(-c3ccccc3)cc2)cc1OC | inactive | inactive |  |
| CCCCCCCCCCCC(=O)NCc1ccc(OC)c(OC)c1 |  | inactive |  |
| CCCCCCCCCCCC(=O)NCc1ccccc1OC | inactive | inactive |  |
| CCCCCCCCCCCC(=O)NCc1ccc2c(c1)OCO2 | inactive | 60% |  |
| COc1ccc(CNC(=O)c2ccc3ccccc3c2)cc1OC | inactive | inactive |  |
| CCCCCCCCCCCC(=O)NCc1ccccc1 | inactive | inactive |  |
| COc1ccc(CNC(=O)c2ccc(Oc3ccc(Cc4ccccc4)cc3)cc2)cc1OC | inactive | 50% |  |
| COc1ccc(OC)c(CNC(=O)c2ccc(Oc3ccc(C(C)(C)C)cc3)cc2)c1 |  | 60% |  |
| CCCCCCCCCCCC(=O)NCc1cc(OC)cc(OC)c1 | inactive | inactive |  |
| CCCCCCCCCCC(=O)NCCc1ccc(OC)c(OC)c1 | inactive | inactive |  |
| COc1ccc(CNC(=O)c2ccc(C(C)(C)C)cc2)cc1OC | inactive | inactive | inactive |
| COc1ccc(CN(C)C(=O)c2ccc(Oc3ccc(C(C)(C)C)cc3)cc2)cc1OC | inactive | 40% |  |
| CCCCCCCCCCCC(=O)NCc1cccc(OC)c1 | 60% | inactive |  |
| CCCCc1ccc(Oc2ccc(C(=O)NCc3ccc(OC)c(OC)c3)cc2)cc1 | inactive | 60% |  |
| CCCCCCCOc1ccc(C(=O)NCc2ccc(OC)c(OC)c2)cc1 | inactive | 60% |  |
| CCCCCCCCCCCC(=O)NCc1cc(OC)ccc1OC | 100% | inactive |  |
| CCCCCCCCCCCC(=O)NCc1ccc(C)c(C)c1 | inactive | 60% |  |
| CCCCCCCCCC(=O)NCCCc1ccc(OC)c(OC)c1 | inactive | 40% | inactive |
| COc1ccc(CNC(=O)c2ccccc2)cc1OC | inactive | inactive | inactive |
